Here are results for 29 compounds from patent US11820766B2, “Monoacylglycerol lipase modulators” (Janssen Pharmaceutica NV, priority 2018, dated 2023).

Usually IC50 stands for the concentration at which inhibition is half-maximal. A lower IC50 goes with greater potency in that assay.

The target in one test is T1, human MGL from HeLa cells (Homo sapiens, UniProt Q99685).
T1 construct: combining endogenously expressed MGL from HeLa cells with test compounds; endogenous in cells; host or cells: HeLa cells / cell homogenates
T1 sequence (Q99685 1-303): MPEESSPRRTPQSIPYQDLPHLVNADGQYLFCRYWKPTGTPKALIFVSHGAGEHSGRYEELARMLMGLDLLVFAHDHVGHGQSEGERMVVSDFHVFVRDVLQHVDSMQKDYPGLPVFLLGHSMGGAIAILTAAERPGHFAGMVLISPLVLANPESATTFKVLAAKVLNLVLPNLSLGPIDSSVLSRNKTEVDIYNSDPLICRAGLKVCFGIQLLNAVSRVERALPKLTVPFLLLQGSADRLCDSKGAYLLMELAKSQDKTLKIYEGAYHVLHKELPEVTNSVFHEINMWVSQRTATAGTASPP
The test can be described thus: In vitro MGL activity assay: [glycerol-1,3-3H]-oleyl glycerol cleavage by MGL from HeLa cells. Particulars: 300 nM [Glycerol-1,3-3H]-oleyl glycerol, one hour. The test is classed as biochemical. From the text: MGL is the predominant hydrolase in HeLa cells/cell homogenates.
With `C[C@H]1c2nn(C)c(-c3cc(F)c(F)c(F)c3)c2CCN1C(=O)c1cccc2c1OC1(CC1)CN2` [Example 604, [(7S)-2,7-Dimethyl-3-(3,4,5-trifluorophenyl)-5,7-dihydro-4H-pyrazolo[3,4-c]pyridin-6-yl]-spiro[3,4-dihydro-1,4-benzoxazine-2,1′-cyclopropane]-8-yl-methanone], the 50% inhibitory concentration (IC50) came out at 102 nM.
The compound `C[C@H]1c2nn(C)c(-c3cc(F)c(F)c(F)c3)c2CCN1C(=O)c1ccc2oc(=O)[nH]c2c1` [Example 586, 5-[(7S)-2,7-Dimethyl-3-(3,4,5-trifluorophenyl)-5,7-dihydro-4H-pyrazolo[3,4-c]pyridine-6-carbonyl]-3H-1,3-benzoxazol-2-one] returned a half-inhibitory concentration (IC50) of 1000 nM.
`C[C@H]1c2nn(C)c(-c3cc(F)c(F)c(F)c3)c2CCN1C(=O)c1cccc2c1CNCC2` [Example 575, [(7S)-2,7-Dimethyl-3-(3,4,5-trifluorophenyl)-5,7-dihydro-4H-pyrazolo[3,4-c]pyridin-6-yl]-(1,2,3,4-tetrahydroisoquinolin-8-yl)methanone] returned an IC50 of 72.7 nM.
For `Cc1nc2ncccn2c1C(=O)N1CCc2c(nn(C)c2-c2cc(F)c(F)c(F)c2)[C@@H]1C` [Example 458, [(7S)-2,7-Dimethyl-3-(3,4,5-trifluorophenyl)-5,7-dihydro-4H-pyrazolo[3,4-c]pyridin-6-yl]-(2-methylimidazo[1,2-a]pyrimidin-3-yl)methanone], inhibition was half-maximal at 163 nM (IC50). Against the preceding compound, the IC50 is about 2.2-fold higher.
In turn, `C[C@H]1c2nn(C)c(-c3cc(F)c(F)c(F)c3)c2CCN1C(=O)c1nc(C(F)(F)F)n2ccncc12` [Example 463, [(7S)-2,7-Dimethyl-3-(3,4,5-trifluorophenyl)-5,7-dihydro-4H-pyrazolo[3,4-c]pyridin-6-yl]-[3-(trifluoromethyl)imidazo[1,5-a]pyrazin-1-yl]methanone] returned a half-inhibitory concentration (IC50) of 19.8 nM.
Turning to `C[C@H]1c2nn(C)c(-c3cc(F)c(F)c(F)c3)c2CCN1C(=O)c1cnn(C)c1C1(F)CC1` [Example 335, [(7S)-2,7-Dimethyl-3-(3,4,5-trifluorophenyl)-5,7-dihydro-4H-pyrazolo[3,4-c]pyridin-6-yl]-[5-(1-fluorocyclopropyl)-1-methyl-pyrazol-4-yl]methanone], the half-inhibitory concentration (IC50) came to 32.1 nM.
Compound `Cc1nc2c(C)cc(F)cn2c1C(=O)N1CCc2c(nn(C)c2-c2cc(F)c(F)c(F)c2)[C@@H]1C` [Example 408, [(7S)-2,7-Dimethyl-3-(3,4,5-trifluorophenyl)-5,7-dihydro-4H-pyrazolo[3,4-c]pyridin-6-yl]-(6-fluoro-2,8-dimethyl-imidazo[1,2-a]pyridin-3-yl)methanone] had a half-maximal inhibitory concentration (IC50) of 27 nM.
In turn, `Cc1nc2cccnn2c1C(=O)N1CCc2c(nn(C)c2-c2cc(F)c(F)c(F)c2)[C@@H]1C` [Example 455, [(7S)-2,7-Dimethyl-3-(3,4,5-trifluorophenyl)-5,7-dihydro-4H-pyrazolo[3,4-c]pyridin-6-yl]-(2-methylimidazo[1,2-b]pyridazin-3-yl)methanone] gave a half-inhibitory concentration (IC50) of 23.2 nM.

The same test, now with this note: 300 nM [Glycerol-1,3-3H]-oleyl glycerol, one hour incubation.
Turning to `C[C@H]1c2nn(C)c(-c3cc(F)c(F)c(F)c3)c2CCN1C(=O)c1cncc2c1ccn2C` [Example 224, (S)-(2,7-Dimethyl-3-(3,4,5-trifluorophenyl)-2,4,5,7-tetrahydro-6H-pyrazolo[3,4-c]pyridin-6-yl)(1-methyl-1H-pyrrolo[2,3-c]pyridin-4-yl)methanone], the IC50 was 2.55 nM.
`COc1cc(Cl)cc(C(=O)N2CCc3c(nn(C)c3-c3cc(F)c(F)c(F)c3)[C@@H]2C)c1` [Example 192, (S)-(3-Chloro-5-methoxyphenyl)(2,7-dimethyl-3-(3,4,5-trifluorophenyl)-2,4,5,7-tetrahydro-6H-pyrazolo[3,4-c]pyridin-6-yl)methanone] returned an IC50 of 6.78 nM.
As to `Cn1nc2c(c1-c1ccccc1)CCN(C(=O)c1ccccc1-n1cncn1)C2` [Example 18, (2-(1H-1,2,4-Triazol-1-yl)phenyl)(2-methyl-3-phenyl-2,4,5,7-tetrahydro-6H-pyrazolo[3,4-c]pyridin-6-yl)methanone], the half-inhibitory concentration (IC50) came to 671 nM.
On the same count and under the same terms, the same measure for `COc1ccc(C(=O)N2CCc3c(nn(C)c3-c3cc(F)c(F)c(F)c3)[C@@H]2C)c(F)c1` [Example 265, [(7S)-2,7-Dimethyl-3-(3,4,5-trifluorophenyl)-5,7-dihydro-4H-pyrazolo[3,4-c]pyridin-6-yl]-(2-fluoro-4-methoxy-phenyl)methanone]: 35 nM; for `Cn1nc2c(c1-c1ccccc1)CCN(C(=O)c1cccc3ncsc13)C2` [Example 59, Benzo[d]thiazol-7-yl(2-methyl-3-phenyl-2,4,5,7-tetrahydro-6H-pyrazolo[3,4-c]pyridin-6-yl)methanone]: 403 nM; for `Cn1nc2c(c1-c1cc(F)cc(F)c1)CCN(C(=O)c1ccc3ncccc3c1)C2` [Example 101, (3-(3,5-Difluorophenyl)-2-methyl-2,4,5,7-tetrahydro-6H-pyrazolo[3,4-c]pyridin-6-yl)(quinolin-6-yl)methanone]: 52.4 nM.
Consider `C[C@@H]1c2nn(C)c(-c3cc(F)cc(Cl)c3)c2CCN1C(=O)c1ccc2ncccc2c1` [Example 179, (R)-(3-(3-Chloro-5-fluorophenyl)-2,7-dimethyl-2,4,5,7-tetrahydro-6H-pyrazolo[3,4-c]pyridin-6-yl)(quinolin-6-yl)methanone], for which the 50% inhibitory concentration (IC50) was 593 nM.
Compound `COc1cccc(C(=O)N2CCc3c(nn(-c4ccccc4)c3-c3ccccc3)[C@@H]2C)c1` [Example 257, (3-Methoxyphenyl)-[(7S)-7-methyl-2,3-diphenyl-5,7-dihydro-4H-pyrazolo[3,4-c]pyridin-6-yl]methanone] gave a half-maximal inhibitory concentration (IC50) of 101 nM.
`C[C@H]1c2nn(C)c(-c3cc(F)c(F)c(F)c3)c2CCN1C(=O)c1cccc(-c2cc[nH]n2)c1` [Example 270, [(7S)-2,7-Dimethyl-3-(3,4,5-trifluorophenyl)-5,7-dihydro-4H-pyrazolo[3,4-c]pyridin-6-yl]-[3-(1H-pyrazol-3-yl)phenyl]methanone] displayed an IC50 of 9.07 nM.
Take `Cc1cc(C(=O)N2CCc3c(nn(C)c3-c3cc(F)c(F)c(F)c3)[C@@H]2C)cc(-n2cnnc2)c1` [Example 293, [(7S)-2,7-Dimethyl-3-(3,4,5-trifluorophenyl)-5,7-dihydro-4H-pyrazolo[3,4-c]pyridin-6-yl]-[3-methyl-5-(1,2,4-triazol-4-yl)phenyl]methanone]: inhibition was half-maximal at 63 nM (IC50).
`C[C@H]1c2nn(C)c(-c3cc(F)cc(F)c3)c2CCN1C(=O)c1cccc(OCCF)c1` [Example 139, (S)-(3-(3,5-Difluorophenyl)-2,7-dimethyl-2,4,5,7-tetrahydro-6H-pyrazolo[3,4-c]pyridin-6-yl)(3-(2-fluoroethoxy)phenyl)methanone]: the IC50 was determined as 9.8 nM.
For the compound `CCc1c(OC)cccc1C(=O)N1CCc2c(nn(C)c2-c2ccccc2)C1` [Example 8, (2-Ethyl-3-methoxyphenyl)(2-methyl-3-phenyl-2,4,5,7-tetrahydro-6H-pyrazolo[3,4-c]pyridin-6-yl)methanone], half-maximal inhibition (IC50) was put at 1840 nM. Against the preceding compound, the IC50 is about 190-fold higher.
In turn, `C[C@H]1c2nn(C)c(-c3cc(F)c(F)c(F)c3)c2CCN1C(=O)c1ccccc1-n1cnc(C(F)(F)F)n1` [Example 282, [(7S)-2,7-Dimethyl-3-(3,4,5-trifluorophenyl)-5,7-dihydro-4H-pyrazolo[3,4-c]pyridin-6-yl]-[2-[3-(trifluoromethyl)-1,2,4-triazol-1-yl]phenyl]methanone] showed an IC50 of 1870 nM.
`C[C@H]1c2nn(C)c(-c3cc(F)cc(F)c3)c2CCN1C(=O)c1ccc2ncccc2c1` (single isomer, unassigned) [Example 159]: the IC50 stood at 7.3 nM.
`Cn1nc2c(c1-c1ccccc1)CCN(C(=O)c1onc3ccccc13)C2` [Example 55, Benzo[c]isoxazol-3-yl(2-methyl-3-phenyl-2,4,5,7-tetrahydro-6H-pyrazolo[3,4-c]pyridin-6-yl)methanone] registered an IC50 of 226 nM.
`Cn1nc2c(c1-c1ccccc1)CCN(C(=O)c1cccc3[nH]ccc13)C2` [Example 42, (1H-Indol-4-yl)(2-methyl-3-phenyl-2,4,5,7-tetrahydro-6H-pyrazolo[3,4-c]pyridin-6-yl)methanone]: the IC50 is 23.6 nM.
Still for that read-out and setting: the same measure for `Cn1nc2c(c1-c1ccccc1)CCN(C(=O)c1cc3[nH]ccc3s1)C2` [Example 31, (2-Methyl-3-phenyl-2,4,5,7-tetrahydro-6H-pyrazolo[3,4-c]pyridin-6-yl)(4H-thieno[3,2-b]pyrrol-2-yl)methanone]: 1230 nM; for `C[C@H]1c2nn(C)c(-c3cc(F)c(F)c(F)c3)c2CCN1C(=O)c1cnn(C(C)(C)C)c1C(F)(F)F` [Example 199, (S)-(1-(tert-Butyl)-5-(trifluoromethyl)-1H-pyrazol-4-yl)(2,7-dimethyl-3-(3,4,5-trifluorophenyl)-2,4,5,7-tetrahydro-6H-pyrazolo[3,4-c]pyridin-6-yl)methanone]: 172 nM.
Compound `Cn1nc2c(c1-c1ccccc1)CCN(C(=O)c1nc3ccccc3s1)C2` [Example 62, Benzo[d]thiazol-2-yl(2-methyl-3-phenyl-2,4,5,7-tetrahydro-6H-pyrazolo[3,4-c]pyridin-6-yl)methanone] registered an IC50 of 1640 nM.
Regarding `Cn1nc2c(c1-c1ccccc1)CCN(C(=O)c1noc3ccccc13)C2` [Example 53, Benzo[d]isoxazol-3-yl(2-methyl-3-phenyl-2,4,5,7-tetrahydro-6H-pyrazolo[3,4-c]pyridin-6-yl)methanone], half-maximal inhibition (IC50) required 32.2 nM.
Regarding `Cn1nc2c(c1-c1ccccc1)CCN(C(=O)c1cccc3ccoc13)C2` [Example 33, Benzofuran-7-yl(2-methyl-3-phenyl-2,4,5,7-tetrahydro-6H-pyrazolo[3,4-c]pyridin-6-yl)methanone], the IC50 amounted to 89.9 nM.
